Reference: patent US12208092B2, “Compositions and methods for administering paltusotine to patients with hepatic impairment” (CRINETICS PHARMACEUTICALS, INC., priority 2023, dated 2025)
Read-outs that look alike come from different tables or passages of the source.

Tests used:
[1] = Phase 1 hepatic impairment study, plasma PK after single oral 20 mg tablet; format: in vivo, human; conditions: for AUC(0-t) / AUC(0-inf) / Cmax / MRT inf / Vd/F / half-life / Tmax: both sexes, human, plasma, oral, 20 mg; for AUC(0-inf): read-out: AUC(0-inf), Mean ± SD; for Cmax: read-out: Cmax, Mean ± SD; for MRT inf: read-out: MRT(0-inf), Median (min, max); for Vd/F: read-out: VZ/F, Mean ± SD; for half-life: read-out: t1/2, Mean ± SD (converted); for Tmax: read-out: tmax, Median (min, max); for AUC(0-inf) Geometric Mean Ratio (90% CI), sensitivity analysis / AUC(0-t) Geometric Mean Ratio (90% CI), sensitivity analysis / Cmax Geometric Mean Ratio (90% CI), sensitivity analysis: matched pairs MMRM with age and BMI
Excerpt: Overall, 36 male and female subjects were enrolled, including 14 subjects with normal hepatic function, 8 subjects with mild stable hepatic impairment (Group 1), 8 subjects with moderate stable hepatic impairment (Group 2), and 6 subjects with severe stable hepatic impairment (Group 3). Healthy subjects with normal hepatic function (Group 4) were matched with hepatically impaired subjects according to sex, age (±10 years), and BMI (±20%). A reasonable attempt was made to match healthy subjects with hepatically impaired subjects in terms of race. Healthy subjects may have matched to more than 1 subject in different hepatic impairment groups but not more than 1 subject within each hepatic impairment group. Healthy subjects were recruited into the study after a sufficient number of hepatically impaired subjects were enrolled in Groups 1, 2, and 3.
The Child-Pugh scale was used to categorize the degree of hepatic impairment for assignment into the mild (score of 5-6), moderate (score of 7-9), and severe hepatic impairment (score of 10-15) groups.
The study included a screening period (Days −28 to −2), check-in (Day −1), and a treatment period (Days 1 to 7). On Day 1, all subjects received a single oral dose of 20 mg of paltusotine (1×20 mg tablet) administered with 240 mL of room temperature water following an overnight fast (nothing to eat or drink except water) of at least 10 hours. Subjects remained fasted and upright (seated or standing) for 4 hours after dosing. Water was permitted as desired except for the period 1 hour before and 1 hour after administration of study drug. Subjects received standardized meals that were scheduled at the same time daily during the study.
Serial blood samples for PK analysis of paltusotine were collected before dosing (0 hour) and up to 144 hours after administration of paltusotine.
Blood samples for analysis of paltusotine concentrations in plasma were collected at the following time points: before dosing (0 hour) and at 0.25, 0.5, 0.75, 1, 1.25, 1.5, 2, 3, 4, 6, 8, 10, 12, 24, 48, 72, 96, 120, and 144 hours after administration of paltusotine.
Pharmacokinetic samples were analyzed using a validated liquid chromatography coupled with tandem mass spectrometry assay for paltusotine in human plasma.
Plasma concentration-time data was analyzed by non-compartmental analysis using Phoenix® WinNonlin® Version 8.3 (Certara USA, Inc., Princeton, NJ).

[2] = biological target: human somatostatin receptor 2 (SST2) (Homo sapiens, UniProt P30874); conditions: read-out: EC50, inhibition of cAMP accumulation via SST2 activation; average, in vitro
human somatostatin receptor 2 (SST2), sequence (P30874 whole entry): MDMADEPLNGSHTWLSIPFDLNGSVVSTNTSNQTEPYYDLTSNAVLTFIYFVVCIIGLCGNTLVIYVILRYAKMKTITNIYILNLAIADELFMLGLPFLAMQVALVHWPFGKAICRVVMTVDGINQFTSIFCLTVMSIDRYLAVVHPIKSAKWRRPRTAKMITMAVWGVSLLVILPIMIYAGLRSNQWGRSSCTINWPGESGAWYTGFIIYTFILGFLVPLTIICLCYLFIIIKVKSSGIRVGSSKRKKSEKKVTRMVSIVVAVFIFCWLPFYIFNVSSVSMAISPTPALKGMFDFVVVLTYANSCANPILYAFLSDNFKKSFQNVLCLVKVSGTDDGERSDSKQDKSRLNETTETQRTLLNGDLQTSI

[3] = SAD/MAD oral administration in healthy adult male subjects; format: in vivo, human; conditions: 1.25 to 20 mg (SAD) and 5 to 30 mg (MAD)
Protocol: A dose of 20 mg paltusotine was chosen for the oral dose in the ADME study as a possible therapeutic dose estimated by PD activities of suppression of growth hormone releasing hormone (GHRH) stimulated GH secretion.

[4] = tested on: human liver microsomes and recombinant CYP450s; assay: CYP phenotyping, in vitro metabolism; format: in vitro ADME
[5] = plasma exposure in 14-day rat study; format: in vivo; conditions: 10 mg/kg/day oral

Q: For `N#Cc1cccc(-c2ccc3ncc(-c4cc(F)cc(F)c4)c(N4CCC(N)CC4)c3c2)c1O` [paltusotine, 3-[4-(4-amino-1-piperidyl)-3-(3,5-difluorophenyl)-6-quinolyl]-2-hydroxybenzonitrile], which AUC(0-t) ([1]; mild hepatic impairment, read-out: AUC(0-24), Mean ± SD) is on record?
A: The AUC(0-t) was 1150 ± 467 ng·h/mL.

Q: And the AUC(0-inf) ([1]; mild hepatic impairment)?
A: Its AUC(0-inf) is 1880 ± 926 ng·h/mL.

Q: And the AUC(0-t) ([1]; mild hepatic impairment, read-out: AUC(0-t), Mean ± SD)?
A: Its AUC(0-t) is 1820 ± 888 ng·h/mL.

Q: And the Cmax ([1]; mild hepatic impairment)?
A: The Cmax was 133 ± 56.6 ng/mL.

Q: What about the MRT inf ([1]; mild hepatic impairment) of the same compound?
A: Its MRT inf is 28.3 h.

Q: And the Vd/F ([1]; mild hepatic impairment)?
A: The Vd/F was 565 ± 348 L.

Q: And the half-life ([1]; mild hepatic impairment)?
A: Its half-life is 1770 ± 564 min.

Q: And the Tmax ([1]; mild hepatic impairment)?
A: The Tmax was 1.63 h.

Q: What about the AUC(0-t) ([1]; moderate hepatic impairment, read-out: AUC(0-24), Mean ± SD) of the same compound?
A: The AUC(0-t) was 1050 ± 729 ng·h/mL.

Q: What about the AUC(0-inf) ([1]; moderate hepatic impairment) of the same compound?
A: The AUC(0-inf) was 1620 ± 1050 ng·h/mL.

Q: What about the AUC(0-t) ([1]; moderate hepatic impairment, read-out: AUC(0-t), Mean ± SD) of the same compound?
A: The AUC(0-t) was 1580 ± 1040 ng·h/mL.

Q: And the Cmax ([1]; moderate hepatic impairment)?
A: Its Cmax is 100 ± 74.6 ng/mL.

Q: And the MRT inf ([1]; moderate hepatic impairment)?
A: The MRT inf was 25.2 h.

Q: What about the Vd/F ([1]; moderate hepatic impairment) of the same compound?
A: The Vd/F was 1050 ± 1110 L.

Q: And the half-life ([1]; moderate hepatic impairment)?
A: Its half-life is 1870 ± 476 min.

Q: And the Tmax ([1]; moderate hepatic impairment)?
A: Its Tmax is 2 h.

Q: And the AUC(0-t) ([1]; normal hepatic function, read-out: AUC(0-24), Mean ± SD)?
A: The AUC(0-t) was 1070 ± 545 ng·h/mL.

Q: And the AUC(0-inf) ([1]; normal hepatic function)?
A: Its AUC(0-inf) is 1840 ± 947 ng·h/mL.

Q: What about the AUC(0-t) ([1]; normal hepatic function, read-out: AUC(0-t), Mean ± SD) of the same compound?
A: The AUC(0-t) was 1780 ± 914 ng·h/mL.

Q: What about the Cmax ([1]; normal hepatic function) of the same compound?
A: Its Cmax is 101 ± 53.7 ng/mL.

Q: And the MRT inf ([1]; normal hepatic function)?
A: The MRT inf was 34.6 h.

Q: And the Vd/F ([1]; normal hepatic function)?
A: Its Vd/F is 660 ± 407 L.

Q: And the half-life ([1]; normal hepatic function)?
A: The half-life was 1960 ± 415 min.

Q: And the Tmax ([1]; normal hepatic function)?
A: The Tmax was 2 h.

Q: And the AUC(0-t) ([1]; severe hepatic impairment, read-out: AUC(0-24), Mean ± SD)?
A: Its AUC(0-t) is 1100 ± 704 ng·h/mL.

Q: What about the AUC(0-inf) ([1]; severe hepatic impairment) of the same compound?
A: Its AUC(0-inf) is 1740 ± 1230 ng·h/mL.

Q: And the AUC(0-t) ([1]; severe hepatic impairment, read-out: AUC(0-t), Mean ± SD)?
A: Its AUC(0-t) is 1680 ± 1190 ng·h/mL.

Q: What about the Cmax ([1]; severe hepatic impairment) of the same compound?
A: The Cmax was 110 ± 72.7 ng/mL.

Q: What about the MRT inf ([1]; severe hepatic impairment) of the same compound?
A: The MRT inf was 29.2 h.

Q: What about the Vd/F ([1]; severe hepatic impairment) of the same compound?
A: Its Vd/F is 666 ± 479 L.

Q: What about the half-life ([1]; severe hepatic impairment) of the same compound?
A: Its half-life is 1770 ± 503 min.

Q: What about the Tmax ([1]; severe hepatic impairment) of the same compound?
A: The Tmax was 3 h.

Q: And the “CL/F, Mean ± SD” value ([1]; mild hepatic impairment)?
A: The value was 15.50 ± 13.496 L/h.

Q: What about the “Cmax higher relative to normal group” value ([1]; mild hepatic impairment) of the same compound?
A: The value was 35%.

Q: What about the “tlag, Median (min, max)” value ([1]; mild hepatic impairment) of the same compound?
A: Its value is 0.00 (0.0, 0.3) h.

Q: And the “AUC(0-inf) Geometric Mean Ratio (90% CI), sensitivity analysis” value (“AUC(0-inf) Geometric Mean Ratio (90% CI)” for short) ([1]; mild vs normal)?
A: Its value is 0.94 (0.591, 1.504).

Q: What about the “AUC(0-t) Geometric Mean Ratio (90% CI), sensitivity analysis” value (“AUC(0-t) Geometric Mean Ratio (90% CI)” for short) ([1]; mild vs normal) of the same compound?
A: Its value is 0.95 (0.591, 1.515).

Q: What about the “Cmax Geometric Mean Ratio (90% CI), sensitivity analysis” value (shortened to “Cmax Geometric Mean Ratio (90% CI)”) ([1]; mild vs normal) of the same compound?
A: Its value is 1.38 (0.871, 2.200).

Q: And the “AUC0-t and AUC0-inf lower relative to normal group” value ([1]; moderate hepatic impairment)?
A: The value was “approximately 25%”.

Q: What about the “CL/F, Mean ± SD” value ([1]; moderate hepatic impairment) of the same compound?
A: The value was 24.89 ± 25.914 L/h.

Q: And the “Cmax lower relative to normal group” value ([1]; moderate hepatic impairment)?
A: The value was 24%.

Q: And the “mean CL/F higher compared to normal group” value ([1]; moderate hepatic impairment)?
A: Its value is 1.8 fold.

Q: And the “mean Vz/F higher compared to normal group” value ([1]; moderate hepatic impairment)?
A: The value was 1.6 fold.

Q: What about the “tlag, Median (min, max)” value ([1]; moderate hepatic impairment) of the same compound?
A: The value was 0.13 (0.0, 0.5) h.

Q: What about the “AUC(0-inf) Geometric Mean Ratio (90% CI)” value ([1]; moderate vs normal) of the same compound?
A: Its value is 0.72 (0.414, 1.251).

Q: And the “AUC(0-t) Geometric Mean Ratio (90% CI)” value ([1]; moderate vs normal)?
A: Its value is 0.71 (0.403, 1.254).

Q: And the “Cmax Geometric Mean Ratio (90% CI)” value ([1]; moderate vs normal)?
A: The value was 0.74 (0.389, 1.412).

Q: And the “CL/F, Mean ± SD” value ([1]; normal hepatic function)?
A: The value was 14.05 ± 7.521 L/h.

Q: And the “tlag, Median (min, max)” value ([1]; normal hepatic function)?
A: The value was 0.00 (0.0, 0.3) h.

Q: What about the “time through which concentration was measurable in systemic circulation” value ([1]; postdose, all groups) of the same compound?
A: The value was 144 h.

Q: What about the “CL/F, Mean ± SD” value ([1]; severe hepatic impairment) of the same compound?
A: The value was 15.92 ± 8.507 L/h.

Q: And the “tlag, Median (min, max)” value ([1]; severe hepatic impairment)?
A: Its value is 0.00 (0.0, 0.3) h.

Q: And the “AUC(0-inf) Geometric Mean Ratio (90% CI)” value ([1]; severe vs normal)?
A: Its value is 0.94 (0.516, 1.702).

Q: And the “AUC(0-t) Geometric Mean Ratio (90% CI)” value ([1]; severe vs normal)?
A: The value was 0.93 (0.512, 1.702).

Q: What about the “Cmax Geometric Mean Ratio (90% CI)” value ([1]; severe vs normal) of the same compound?
A: The value was 1.04 (0.586, 1.854).

Q: And the EC50 [2]?
A: Its EC50 is 0.25 nM.

Q: What about the AUC dose dependence [3] of the same compound?
A: Its AUC dose dependence is “increased dose-dependently”.

Q: What about the “CYP enzymes catalyzing oxidative metabolism” value [4] of the same compound?
A: The value was “CYP3A4/5 catalyzes the oxidative metabolism of paltusotine with minor contribution of CYP2D6”.

Q: And the “contribution of CYP-mediated metabolism” value ([4]; in vitro studies)?
A: The value was about 16.8%.

Q: And the AUC(0-t) ([5]; read-out: day-last mean plasma AUC0-24)?
A: Its AUC(0-t) is 975 ng·h/mL.

Q: What about the Cmax ([5]; read-out: day-last mean plasma Cmax) of the same compound?
A: The Cmax was 127 ng/mL.
